The values below are quoted from earlier work in patent publication US7169586B2, “Mutant N-acetylglutamate synthase and method for L-arginine production” (Ajinomoto Co., Inc., priority 2000, dated 2007).

By Ki is commonly meant a measure of affinity in units of concentration, obtained from inhibition or displacement.

One series has as its target NAGS (Escherichia coli, UniProt P0A6C5). Particulars: Leisinger and Haas 1975; read-out: Ki, inhibition of NAGS activity.
For a further series, the system named is argA expression. Particulars: Cunin et al. 1986; Leisinger and Haas 1975.

NAGS, sequence (P0A6C5 whole entry): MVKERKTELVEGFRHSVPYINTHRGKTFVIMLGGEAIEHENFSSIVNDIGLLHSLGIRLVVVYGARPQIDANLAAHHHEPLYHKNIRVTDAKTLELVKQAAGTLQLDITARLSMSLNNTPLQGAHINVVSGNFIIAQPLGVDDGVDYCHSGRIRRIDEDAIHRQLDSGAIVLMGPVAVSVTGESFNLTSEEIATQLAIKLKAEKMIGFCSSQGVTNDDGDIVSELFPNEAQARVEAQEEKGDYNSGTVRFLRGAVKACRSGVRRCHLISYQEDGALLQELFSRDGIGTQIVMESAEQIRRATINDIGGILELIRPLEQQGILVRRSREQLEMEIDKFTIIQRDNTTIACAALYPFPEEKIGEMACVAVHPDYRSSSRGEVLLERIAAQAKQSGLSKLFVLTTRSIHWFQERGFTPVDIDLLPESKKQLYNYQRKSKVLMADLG

`N=C(N)NCCC[C@H](N)C(=O)O` [L-Arginine]: the Ki on NAGS was 20 µM. Further, the “repression ratio of argA expression” value in the series on argA expression is listed as “greater than 250”.
